The target in one test is T1, human thrombin (Homo sapiens, UniProt P00734).
T1 construct: conversion of prothrombin to thrombin, the final enzyme in the coagulation cascade; purchased Behring LOT.-No. 881001 (a lot number; no catalogue number given)
Put plainly: Chromogenic assay for thrombin inhibition. The format is biochemical. The conditions noted are these: chromogenic substrate S-2366 200 μM; Ki from IC50 by Cheng Prusoff formula, mean of duplicates. As to the method: (§1) The ability of the compounds of the formulae I or Ia to inhibit thrombin or factor Xa or other enzymes like factor VIIa, plasmin, or trypsin can be assessed by determining the concentration of the compound of the formulae I or Ia that inhibits enzyme activity by 50%, i.e. the 1050 value, which was related to the inhibition constant Ki. Purified enzymes were used in chromogenic assays. The concentration of inhibitor that causes a 50% decrease in the rate of substrate hydrolysis was determined by linear regression after plotting the relative rates of hydrolysis (compared to the uninhibited control) versus the log of the concentration of the compound of formulae I or Ia. For calculating the inhibition constant Ki, the 1050 value was corrected for competition with substrate using the formula Ki=IC50/{1+(substrate concentration/Km)} wherein Km is the Michaelis-Menten constant (Chen and Prusoff, Biochem. Pharmacol. 22 (1973) 3099-3108). Measurement of F Xa and Thrombin Inhibition:
(§2) The claimed substances were tested for F Xa and thrombin inhibition with a chromogenic assay. 8 μl DMSO solution of the compound, 72 μL assay buffer (50 mM TRIS, 150 mM NaCl, 0.1% BSA, pH 7.8) and 20 μL enzyme (human coagulation factor Xa: Haemochrom Diag. Cat. Nr. HFXa, final concentration […]; human thrombin Behring: LOT.-No. 881001) were mixed and incubated for 15 minutes at room temperature in a 96 well microtiter plate. The enzyme reaction was started with 100 μL substrate (F Xa: S-2765, Chromogenix/Haemochrom Cat. Nr. 41249; thrombin: S-2366, Chromogenix/Haemochrom Cat. Nr. 41222 both in a final concentration of 200 μM). The time course of the reaction was monitored at 405 nm in a microtiter plate reader (SpectraMax plus 384; Molecular Devices Inc.) for 15 minutes.
(§3) The Ki was calculated from the mean of duplicates from a dilution series of the compound by the reader according to the Cheng Prusoff formula Ki=IC50/(1+(S/Km).
(§4) The results (inhibition constants Ki Thrombin and FXa in mikro M [μM]) for inhibition of thrombin and factor Xa are shown in Table 1.

For test [1], the target named is T2, human coagulation factor Xa (Homo sapiens, UniProt P00742).
T2 construct: purchased Haemochrom Diag; HFXa
T2 sequence (P00742 235-488 limits assumed): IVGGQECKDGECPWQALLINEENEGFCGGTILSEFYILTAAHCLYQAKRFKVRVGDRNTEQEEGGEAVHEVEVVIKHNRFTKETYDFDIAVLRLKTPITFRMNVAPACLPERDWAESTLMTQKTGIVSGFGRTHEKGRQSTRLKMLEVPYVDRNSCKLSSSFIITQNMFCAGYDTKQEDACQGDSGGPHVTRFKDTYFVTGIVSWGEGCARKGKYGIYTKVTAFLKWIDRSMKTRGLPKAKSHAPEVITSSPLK
T2 sequence (P00742 41-179 limits assumed): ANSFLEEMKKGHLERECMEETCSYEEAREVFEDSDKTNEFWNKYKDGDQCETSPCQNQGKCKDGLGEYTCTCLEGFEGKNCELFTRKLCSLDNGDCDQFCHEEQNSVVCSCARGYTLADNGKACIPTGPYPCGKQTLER
Put plainly: Chromogenic assay for F Xa inhibition. The format is biochemical. The conditions noted are these: chromogenic substrate S-2765 200 μM; Ki from IC50 by Cheng Prusoff formula, mean of duplicates. As to the method: as §1, §2, §3, §4

In general, Ki refers to the dissociation constant of the complex between target and ligand, obtained from inhibition or displacement. A high value points to lower affinity.

Turning to `CCc1c(N2CCOCC2=O)cccc1S(=O)(=O)N[C@@H](Cc1cc(-c2ccc(Cl)s2)on1)C(=O)N1CCCCCC1` [Example 1, N-{(S)-2-Azepan-1-yl-1-[5-(5-chloro-thiophen-2-yl)-isoxazol-3-ylmethyl]-2-oxo-ethyl}-2-ethyl-3-(3-oxo-morpholin-4-yl)-benzenesulfonamide], the figures for the Ki (on human thrombin; in test [1]) were 0.35 nM and 13 nM, respectively.

For `O=C([C@H](Cc1cc(-c2ccc(Cl)s2)on1)NS(=O)(=O)c1cccc(N2CCOCC2=O)c1Cl)N1CCCCCC1` [Example 2, N-{(S)-2-Azepan-1-yl-1-[5-(5-chloro-thiophen-2-yl)-isoxazol-3-ylmethyl]-2-oxo-ethyl}-2-chloro-3-(3-oxo-morpholin-4-yl)-benzenesulfonamide], the Ki was determined as 7 nM at human thrombin and 83 nM in test [1].

As to `COc1c(N2CCCCC2=O)cc(F)cc1S(=O)(=O)N[C@@H](Cc1cc(-c2ccc(Cl)s2)on1)C(=O)NCC1CC1` [Example 3, (S)-3-[5-(5-Chloro-thiophen-2-yl)-isoxazol-3-yl]-N-cyclopropylmethyl-2-[5-fluoro-2-methoxy-3-(2-oxo-piperidin-1-yl)-benzenesulfonylamino]-propionamide], the Ki on human thrombin came out at 268 nM; in test [1], 904 nM.

Regarding `COc1c(N2CCCCC2=O)cc(F)cc1S(=O)(=O)N[C@@H](Cc1cc(-c2ccc(Cl)s2)on1)C(=O)N1CCN(C2CC2)CC1` [Example 4, N—[(S)-1-[5-(5-Chloro-thiophen-2-yl)-isoxazol-3-ylmethyl]-2-(4-cyclopropyl-piperazin-1-yl)-2-oxo-ethyl]-5-fluoro-2-methoxy-3-(2-oxo-piperidin-1-yl)-benzenesulfonamide trifluoro acetate], the Ki was determined as 29 nM at human thrombin and 6 nM in test [1].

As for `O=C([C@H](Cc1cc(-c2ccc(Cl)s2)on1)NS(=O)(=O)c1cccc(N2CCCCC2=O)c1OC(F)F)N1CCN(C2CC2)CC1` [Example 5, N—[(S)-1-[5-(5-Chloro-thiophen-2-yl)-isoxazol-3-ylmethyl]-2-(4-cyclopropyl-piperazin-1-yl)-2-oxo-ethyl]-2-difluoromethoxy-3-(2-oxo-piperidin-1-yl)-benzenesulfonamide trifluoro acetate], the Ki on human thrombin was found to be 94 nM; in test [1], 33 nM.

In the case of `Cc1c(N2CCCC2=O)cccc1S(=O)(=O)N[C@@H](Cc1cc(-c2ccc(Cl)s2)on1)C(=O)N1CCN(CC(F)(F)F)CC1` [Example 6, N-{(S)-1-[5-(5-Chloro-thiophen-2-yl)-isoxazol-3-ylmethyl]-2-oxo-2-[4-(2,2,2-trifluoro-ethyl)-piperazin-1-yl]-ethyl}-2-methyl-3-(2-oxo-pyrrolidin-1-yl)-benzenesulfonamide trifluoro acetate], the figures for the Ki (on human thrombin; in test [1]) were 14 nM and 0.72 nM, respectively.

For the compound `Cc1c(N2CCCC2=O)cccc1S(=O)(=O)N[C@@H](Cc1cc(-c2ccc(Cl)s2)on1)C(=O)N1CCNC(C(F)(F)F)C1` (stereo partly drawn) [Example 7, N—[(S)-1-[5-(5-Chloro-thiophen-2-yl)-isoxazol-3-ylmethyl]-2-oxo-2-(3-trifluoromethyl-piperazin-1-yl)-ethyl]-2-methyl-3-(2-oxo-pyrrolidin-1-yl)-benzenesulfonamide trifluoro acetate], the Ki on human thrombin was found to be 0.79 nM; in test [1], 0.44 nM.

The values above are taken from patent US8835653B2, “Chlorothiophene-isoxazoles as inhibitors of coagulation factors Xa and thrombin” (Sanofi, priority 2008, dated 2014).
